# Experiments:
# Pseudomonas aeruginosa [1] = assay: Antibacterial activity against Pseudomonas aeruginosa blood isolate 1 carrying insertion sequence ISPa26 by disk susceptibility test; assay type: functional
# Pseudomonas aeruginosa [2] = assay: Antibacterial activity against Pseudomonas aeruginosa pus isolate 6 carrying insertion sequence ISPa26 by disk susceptibility test; assay type: functional
# Pseudomonas aeruginosa [3] = assay: Antibacterial activity against Pseudomonas aeruginosa tracheal aspirate isolate 7 carrying insertion sequence ISPa26 by disk susceptibility test; assay type: functional
# Pseudomonas aeruginosa [4] = assay: Antibacterial activity against Pseudomonas aeruginosa tracheal aspirate isolate 8 carrying insertion sequence ISPa26 inserted into oprD gene by disk susceptibility test; assay type: functional
# Pseudomonas aeruginosa [5] = assay: Antibacterial activity against Pseudomonas aeruginosa tracheal aspirate isolate 12 carrying insertion sequence ISPa26 by disk susceptibility test; assay type: functional
# Pseudomonas aeruginosa [6] = assay: Antibacterial activity against Pseudomonas aeruginosa cystic fibrosis sputum isolate 286 carrying insertion sequence ISPa26 by disk susceptibility test; assay type: functional
# Pseudomonas aeruginosa [7] = assay: microbe, parasite or virus in culture
# Description: Antibacterial activity against Pseudomonas aeruginosa cystic fibrosis sputum isolate 529 carrying insertion sequence ISPa26 by disk susceptibility test
Compound,MIC (Pseudomonas aeruginosa [1]) [µg/mL],MIC (Pseudomonas aeruginosa [2]) [µg/mL],MIC (Pseudomonas aeruginosa [3]) [µg/mL],MIC (Pseudomonas aeruginosa [4]) [µg/mL],MIC (Pseudomonas aeruginosa [5]) [µg/mL],MIC (Pseudomonas aeruginosa [6]) [µg/mL],MIC (Pseudomonas aeruginosa [7]) [µg/mL]
C[C@@H](O)[C@H]1C(=O)N2C(C(=O)O)=C(S[C@@H]3CN[C@H](C(=O)N(C)C)C3)[C@H](C)[C@H]12 [MEROPENEM],> 32,6,6,> 32,3,> 32,2
C[C@@H](O)[C@H]1C(=O)N2C(C(=O)O)=C(SCCNC=N)C[C@H]12 [IMIPENEM ANHYDROUS],> 32,> 32,> 32,> 32,2,> 32,1

# Source: ChEMBL document CHEMBL1152824, “A novel insertion sequence, ISPA26, in oprD of Pseudomonas aeruginosa is associated with carbapenem resistance” (2007)
